# Data published in patent US7087631B2, “Aryltetrazole compounds, and compositions thereof” (Inotek Pharmaceuticals Corporation, priority 2002, dated 2006).
# Experiments:
# xanthine oxidase = xanthine oxidase (Homo sapiens, UniProt P47989); test: Xanthine oxidase inhibitory activity, 96 well plate, kinetic reading at 295 nm; assay type: biochemical
# [1] = system: thioacetamide model of hepatic failure; test: Toxic liver injury model (thioacetamide model of hepatic failure), serum AST; assay type: in vivo; details: mice; for Percent Inhibition of Serum AST Levels: thioacetamide 400 mg/kg i.p., mean ±SEM (n=7-10); for serum AST levels (result in words): summary of the table
# Protocol: Illustrative 5-Aryltetrazole Compounds exert hepatoprotective effects in a thioacetamide model of hepatic failure. […] […] Results are expressed as percent inhibtion, mean ±SEM (n=7-10). Studies were conducted as described in Biochim. Biophys. Acta. 1536(1):21-30 (2001).
# Sequence of xanthine oxidase (P47989 whole entry, species assumed): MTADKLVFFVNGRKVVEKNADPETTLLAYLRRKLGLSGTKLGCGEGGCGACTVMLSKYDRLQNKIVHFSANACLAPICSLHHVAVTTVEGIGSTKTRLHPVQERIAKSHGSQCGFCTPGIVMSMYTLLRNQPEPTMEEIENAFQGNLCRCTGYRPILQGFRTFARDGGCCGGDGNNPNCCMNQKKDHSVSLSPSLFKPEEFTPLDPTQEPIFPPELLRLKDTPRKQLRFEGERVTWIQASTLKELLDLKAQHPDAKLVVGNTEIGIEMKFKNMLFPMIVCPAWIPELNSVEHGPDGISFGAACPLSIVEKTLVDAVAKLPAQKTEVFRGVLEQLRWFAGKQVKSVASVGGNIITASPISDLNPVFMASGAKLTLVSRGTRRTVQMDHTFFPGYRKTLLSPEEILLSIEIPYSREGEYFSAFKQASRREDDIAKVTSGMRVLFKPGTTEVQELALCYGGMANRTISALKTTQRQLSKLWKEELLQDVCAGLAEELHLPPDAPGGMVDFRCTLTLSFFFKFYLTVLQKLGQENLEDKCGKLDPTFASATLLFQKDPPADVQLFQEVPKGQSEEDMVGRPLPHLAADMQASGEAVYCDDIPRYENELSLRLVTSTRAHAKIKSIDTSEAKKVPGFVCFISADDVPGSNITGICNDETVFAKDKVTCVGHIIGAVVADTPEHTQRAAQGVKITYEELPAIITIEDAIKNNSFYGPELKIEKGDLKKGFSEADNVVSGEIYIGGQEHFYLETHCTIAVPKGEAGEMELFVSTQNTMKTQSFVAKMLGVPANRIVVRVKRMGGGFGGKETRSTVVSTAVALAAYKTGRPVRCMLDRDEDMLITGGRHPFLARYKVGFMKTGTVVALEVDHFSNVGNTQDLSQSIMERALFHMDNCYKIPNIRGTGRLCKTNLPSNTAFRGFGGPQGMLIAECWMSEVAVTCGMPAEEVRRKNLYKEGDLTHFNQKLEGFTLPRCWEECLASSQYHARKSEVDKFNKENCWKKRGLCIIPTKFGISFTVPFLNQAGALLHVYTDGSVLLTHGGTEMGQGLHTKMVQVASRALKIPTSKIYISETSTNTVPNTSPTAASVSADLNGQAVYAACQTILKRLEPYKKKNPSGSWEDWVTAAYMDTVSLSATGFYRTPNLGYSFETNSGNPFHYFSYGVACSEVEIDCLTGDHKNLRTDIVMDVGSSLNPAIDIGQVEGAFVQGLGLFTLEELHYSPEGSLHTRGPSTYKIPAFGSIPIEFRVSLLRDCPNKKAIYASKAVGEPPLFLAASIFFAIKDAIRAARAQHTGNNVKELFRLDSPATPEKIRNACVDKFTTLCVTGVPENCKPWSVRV
Compound,PERCENT XANTHINE OXIDASE INHIBITION (xanthine oxidase; compound concentration 0.03 μM) [%],PERCENT XANTHINE OXIDASE INHIBITION (xanthine oxidase; compound concentration 0.1 μM) [%],PERCENT XANTHINE OXIDASE INHIBITION (xanthine oxidase; compound concentration 1 μM) [%],also measured
Cc1ccc(NC(=O)c2ccc(-c3nnn[nH]3)cc2)cc1 [Compound JN],20,41,88,Percent Inhibition of Serum AST Levels ([1]; single oral dose 3 mg/kg): 11 ± 7%; Percent Inhibition of Serum AST Levels ([1]; single oral dose 10 mg/kg): 31 ± 7%
O=C(O)c1ccc(NC(=O)c2ccc(-c3nnn[nH]3)cc2)cc1 [Compound IS],44,68,97,serum AST levels (result in words) [1]: inhibit serum AST levels; Percent Inhibition of Serum AST Levels ([1]; single oral dose 10 mg/kg): 33 ± 5%
O=C(Nc1ccc(Cl)cc1)c1ccc(-c2nnn[nH]2)cc1 [IX],46,74,98,serum AST levels (result in words) [1]: inhibit serum AST levels; Percent Inhibition of Serum AST Levels ([1]; single oral dose 10 mg/kg): 31 ± 1%
O=C(Nc1cccc(F)c1)c1ccc(-c2nnn[nH]2)cc1 [HW],32,62,89,
O=C(OCc1ccccc1)c1ccc(-c2nnn[nH]2)cc1 [GA],,,78,PERCENT XANTHINE OXIDASE INHIBITION (xanthine oxidase; compound concentration 10 μM): 100%; PERCENT XANTHINE OXIDASE INHIBITION (xanthine oxidase; compound concentration 100 μM): 100%
O=C(Oc1cccc(Br)c1)c1ccc(-c2nnn[nH]2)cc1 [GT],,53,94,PERCENT XANTHINE OXIDASE INHIBITION (xanthine oxidase; compound concentration 0.01 μM): 8%
CCCCCCOC(=O)c1ccc(-c2nnn[nH]2)cc1 [GF],,,28,PERCENT XANTHINE OXIDASE INHIBITION (xanthine oxidase; compound concentration 10 μM): 79%; PERCENT XANTHINE OXIDASE INHIBITION (xanthine oxidase; compound concentration 100 μM): 97%
CCc1ccc(NC(=O)c2ccc(-c3nnn[nH]3)cc2)cc1 [JM],16,38,89,Percent Inhibition of Serum AST Levels ([1]; single oral dose 3 mg/kg): 12 ± 7%; Percent Inhibition of Serum AST Levels ([1]; single oral dose 10 mg/kg): 31 ± 7%
COc1cccc(NC(=O)c2ccc(-c3nnn[nH]3)cc2)c1 [IL],21,46,86,
O=C(c1ccc(-c2nnn[nH]2)cc1)N1CCNCC1 [HL],,,,PERCENT XANTHINE OXIDASE INHIBITION (xanthine oxidase; compound concentration 100 μM): 0%
O=C(OCC1CC1)c1ccc(-c2nnn[nH]2)cc1 [GB],,,82,PERCENT XANTHINE OXIDASE INHIBITION (xanthine oxidase; compound concentration 10 μM): 97%; PERCENT XANTHINE OXIDASE INHIBITION (xanthine oxidase; compound concentration 100 μM): 100%
O=C(OCCc1cccs1)c1ccc(-c2nnn[nH]2)cc1 [HQ],,97,95,PERCENT XANTHINE OXIDASE INHIBITION (xanthine oxidase; compound concentration 0.05 μM): 53%
O=C(O)c1cccc(NC(=O)c2ccc(-c3nnn[nH]3)cc2)c1 [IB],38,64,94,
O=C(OCCN1CCOCC1)c1ccc(-c2nnn[nH]2)cc1 [GK],,12,46,PERCENT XANTHINE OXIDASE INHIBITION (xanthine oxidase; compound concentration 0.01 μM): 3%
O=C(NCC1CCCCC1)c1ccc(-c2nnn[nH]2)cc1 [HS],8,16,55,
O=C(O)Cc1cccc(NC(=O)c2ccc(-c3nnn[nH]3)cc2)c1 [ID],13,37,72,
CCc1cccc(NC(=O)c2ccc(-c3nnn[nH]3)cc2)c1 [IE],22,38,87,
C#CCCCOC(=O)c1ccc(-c2nnn[nH]2)cc1 [GM],,28,76,PERCENT XANTHINE OXIDASE INHIBITION (xanthine oxidase; compound concentration 0.01 μM): 8%
O=C(OCc1ccco1)c1ccc(-c2nnn[nH]2)cc1 [HP],,91,100,PERCENT XANTHINE OXIDASE INHIBITION (xanthine oxidase; compound concentration 0.05 μM): 41%
c1ccc(CCCOc2ccc(-c3nnn[nH]3)cc2)cc1 [IW],,9,22,
O=C(OCc1cccc(Cl)c1)c1ccc(-c2nnn[nH]2)cc1 [GD],,,79,PERCENT XANTHINE OXIDASE INHIBITION (xanthine oxidase; compound concentration 10 μM): 82%; PERCENT XANTHINE OXIDASE INHIBITION (xanthine oxidase; compound concentration 100 μM): 100%

Compound,PERCENT XANTHINE OXIDASE INHIBITION (xanthine oxidase; compound concentration 0.03 μM) [%],PERCENT XANTHINE OXIDASE INHIBITION (xanthine oxidase; compound concentration 0.1 μM) [%],PERCENT XANTHINE OXIDASE INHIBITION (xanthine oxidase; compound concentration 1 μM) [%],also measured
COc1ccccc1NC(=O)c1ccc(-c2nnn[nH]2)cc1 [IK],9,17,55,
CC(=O)c1cccc(NC(=O)c2ccc(-c3nnn[nH]3)cc2)c1 [Compound IA],31,54,90,
COc1ccc(NC(=O)c2ccc(-c3nnn[nH]3)cc2)cc1 [IJ],27,58,93,
O=C(Nc1ccccc1)c1ccc(-c2nnn[nH]2)cc1Cl [JJ],,,0,
c1cncc(-c2cccc(-c3nnn[nH]3)c2)c1 [HJ],,,,PERCENT XANTHINE OXIDASE INHIBITION (xanthine oxidase; compound concentration 100 μM): 2%
O=C(NC1CCCCC1)c1ccc(-c2nnn[nH]2)cc1 [HA],,10,61,
CNC(=O)Nc1ccc(-c2nnn[nH]2)cc1 [FS],,,,PERCENT XANTHINE OXIDASE INHIBITION (xanthine oxidase; compound concentration 100 μM): 10%
N#Cc1cc(-c2nnn[nH]2)ccc1C(=O)Nc1ccncc1 [JG],33,61,93,
O=C(Nc1cccc(I)c1)c1ccc(-c2nnn[nH]2)cc1 [HZ],20,41,88,
FC(F)(F)Oc1ccc(-c2nnn[nH]2)cc1 [FL],,,,PERCENT XANTHINE OXIDASE INHIBITION (xanthine oxidase; compound concentration 10 μM): 14%; PERCENT XANTHINE OXIDASE INHIBITION (xanthine oxidase; compound concentration 100 μM): 55%
CCCOC(=O)c1ccc(-c2nnn[nH]2)cc1 [HR],,95,95,PERCENT XANTHINE OXIDASE INHIBITION (xanthine oxidase; compound concentration 0.05 μM): 34%
O=C(OCC(F)(F)F)c1ccc(-c2nnn[nH]2)cc1 [GJ],,59,99,PERCENT XANTHINE OXIDASE INHIBITION (xanthine oxidase; compound concentration 0.01 μM): 12%
CC(C)COc1ccc(-c2nnn[nH]2)cc1 [JP],46,74,98,
c1cc(-c2nnn[nH]2)ccc1OCC1CCCCC1 [IN],,21,68,xanthine oxidase activity (result in words) (xanthine oxidase; summary of the table): inhibit xanthine oxidase activity
Fc1ccc(-c2nnn[nH]2)cc1 [FM],,,,PERCENT XANTHINE OXIDASE INHIBITION (xanthine oxidase; compound concentration 10 μM): 19%; PERCENT XANTHINE OXIDASE INHIBITION (xanthine oxidase; compound concentration 100 μM): 78%
COc1ccc(-c2nnn[nH]2)c2ccccc12 [HM],,,,PERCENT XANTHINE OXIDASE INHIBITION (xanthine oxidase; compound concentration 100 μM): 27%
N#Cc1cc(-c2nnn[nH]2)ccc1C(=O)Nc1nccs1 [JI],19,30,79,
O=C(OC(C1CCCCC1)C1CCCCC1)c1ccc(-c2nnn[nH]2)cc1 [GZ],,,8,
Fc1ccccc1-c1nnn[nH]1 [FP],,,,PERCENT XANTHINE OXIDASE INHIBITION (xanthine oxidase; compound concentration 10 μM): 3%; PERCENT XANTHINE OXIDASE INHIBITION (xanthine oxidase; compound concentration 100 μM): 21%
CCOC(=O)c1ccc(-c2nnn[nH]2)cc1 [FV],,,64,PERCENT XANTHINE OXIDASE INHIBITION (xanthine oxidase; compound concentration 10 μM): 92%; PERCENT XANTHINE OXIDASE INHIBITION (xanthine oxidase; compound concentration 100 μM): 100%
